Literature values as cited in patent publication US8193152B2 (priority 2004, dated 2012).
Read-outs that look alike come from different tables or passages of the source.

How the values were obtained:
[1] = in vivo
[2] = in vivo; remark: listed apart in the source
mycobacterial infection = settings: mouse, in vivo
mycobacteria = settings: human, in vivo
PIC = settings: guinea pig, in vivo
Machupo = settings: rhesus monkey, in vivo

Compound: N[C@H](CCC(=O)N[C@@H](Cc1c[nH]c2ccccc12)C(=O)O)C(=O)O [SCV-07, γ-D-glutamyl-L-tryptophan]
- Con-A-induced thymocyte and lymphocyte proliferation (thymocyte and lymphocyte): increases
- Con-A-induced interleukin-2 (IL-2) production (spleen lymphocytes): increases
- IL-2 receptor expression (spleen lymphocytes): increases
- expression of Thy-1.2 (bone marrow cells): stimulates expression
- immunostimulatory effect [1]: strong immunostimulatory effect
- immunostimulatory effect [2]: strong immunostimulatory effect
- IFNγ production by Con-A-induced spleen cells (mycobacterial infection): higher
- IL-4 production by Con-A-induced spleen cells (mycobacterial infection): lower
- Phagocytic activity by peritoneal macrophages (mycobacterial infection): markedly increased
- lung damage (mycobacterial infection): significantly decrease
- cavity healing and symptoms of tuberculosis (mycobacteria): positive effect
- drug-induced adverse effects (mycobacteria): without any drug-induced adverse effects
- incidence of mycobacteria-negative sputum cultures (mycobacteria): increased

Compound: NC(=O)c1ncn([C@@H]2O[C@H](CO)[C@@H](O)[C@H]2O)n1 [ribavirin, Ribavirin, reference compound]
- time to death (PIC): prolonged

Compound: IFNα
- mortality (PIC): No significant improvement in mortality

Compound: poly (ICLC)
- Overall mortality and time to death (Machupo): not improved
- viremia (Machupo): significantly higher
